Biological target: ACL (Homo sapiens (Human), UniProt P53396)
Test: ADP-Glo Assay
Conditions: not given

ACL, sequence (P53396 other isoform, or with tags, fused parts or gaps isoform P53396-2): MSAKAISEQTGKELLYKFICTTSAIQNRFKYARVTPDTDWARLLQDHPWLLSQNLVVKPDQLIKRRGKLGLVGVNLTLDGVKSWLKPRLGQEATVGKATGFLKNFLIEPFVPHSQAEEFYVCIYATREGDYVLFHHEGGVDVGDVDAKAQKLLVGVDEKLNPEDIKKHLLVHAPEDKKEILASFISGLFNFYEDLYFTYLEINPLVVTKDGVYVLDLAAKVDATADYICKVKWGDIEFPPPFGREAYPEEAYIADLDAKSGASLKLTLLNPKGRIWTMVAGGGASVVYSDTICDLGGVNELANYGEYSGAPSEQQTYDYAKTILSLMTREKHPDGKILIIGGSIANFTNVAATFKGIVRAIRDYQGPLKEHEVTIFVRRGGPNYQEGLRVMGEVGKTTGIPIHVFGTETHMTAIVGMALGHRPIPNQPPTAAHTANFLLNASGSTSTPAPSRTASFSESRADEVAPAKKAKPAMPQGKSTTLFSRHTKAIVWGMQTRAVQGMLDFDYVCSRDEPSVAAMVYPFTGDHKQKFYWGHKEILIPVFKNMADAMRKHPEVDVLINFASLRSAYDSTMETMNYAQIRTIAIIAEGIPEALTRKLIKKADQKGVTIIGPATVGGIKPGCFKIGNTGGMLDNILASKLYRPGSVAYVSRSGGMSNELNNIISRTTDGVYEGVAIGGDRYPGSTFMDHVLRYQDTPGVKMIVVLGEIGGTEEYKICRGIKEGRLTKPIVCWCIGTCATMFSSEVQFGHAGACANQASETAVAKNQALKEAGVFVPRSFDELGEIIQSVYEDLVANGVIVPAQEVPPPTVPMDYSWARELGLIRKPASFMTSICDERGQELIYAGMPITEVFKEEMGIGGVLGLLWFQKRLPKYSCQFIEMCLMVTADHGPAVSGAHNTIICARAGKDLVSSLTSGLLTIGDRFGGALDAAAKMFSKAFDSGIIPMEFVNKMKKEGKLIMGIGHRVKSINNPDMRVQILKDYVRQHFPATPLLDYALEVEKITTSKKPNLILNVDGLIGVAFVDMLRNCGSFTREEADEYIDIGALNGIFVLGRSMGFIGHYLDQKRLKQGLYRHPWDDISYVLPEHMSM

Row | Compound | IC50
1 | O=S(=O)(Nc1cc(-c2ccccc2)c(F)cc1F)c1ccccc1O [I-230, N-[4,6-difluoro-[1,1-biphenyl]-3-yl]-2-hydroxybenzene-1-sulfonamide] | 0.5 to 20 µM
2 | CN(C)C(=O)c1cc(Cl)c(O)c(S(=O)(=O)Nc2cc(C3CC3)c(F)cc2F)c1 [I-231, 3-chloro-5-(N-(5-cyclopropyl-2,4-difluorophenyl)sulfamoyl)-4-hydroxy-N,N-dimethylbenzamide] | 0.5 to 20 µM
3 | O=C(O)c1ccc(-c2ccccc2)cc1NS(=O)(=O)c1cc(Cl)cc(-c2nccs2)c1 [I-234, 3-((3-chloro-5-(thiazol-2-yl)phenyl)sulfonamido)-[1,1′-biphenyl]-4-carboxylic Acid] | 0.5 to 20 µM
4 | O=C(O)COc1ccc(-c2ccccc2)cc1NS(=O)(=O)c1cc(F)cc(Cl)c1 [I-238, 2-((3-((3-chloro-5-fluorophenyl)sulfonamido)-[1,1′-biphenyl]-4-yl)oxy)acetic Acid] | 0.5 to 20 µM
5 | O=C(O)COc1ccc(-c2ccccc2)cc1NS(=O)(=O)c1cc(Cl)cc(Cl)c1 [I-244, 2-[[3-(3,5-dichlorobenzenesulfonamido)-[1,1-biphenyl]-4-yl]oxy]acetic Acid] | 0.5 to 20 µM
6 | NC(=O)Cc1ccc(-c2ccccc2)cc1NS(=O)(=O)c1cc(Cl)cc(Cl)c1 [I-245, 2-(3-((3,5-dichlorophenyl)sulfonamido)-[1,1′-biphenyl]-4-yl)acetamide] | 0.5 to 20 µM
7 | O=S(=O)(Nc1cc(-c2ccccc2)c(F)cc1F)c1cc(Cl)cc(Br)c1 [I-246, 3-bromo-5-chloro-N-(4,6-difluoro-[1,1′-biphenyl]-3-yl)benzenesulfonamide] | 0.5 to 20 µM
8 | O=C(O)c1ccc(-c2ccccc2)cc1NS(=O)(=O)c1cncc(Cl)c1 [I-247, 3-((5-chloropyridine)-3-sulfonamido)-[1,1′-biphenyl]-4-carboxylic Acid] | 0.5 to 20 µM
9 | COC(=O)c1ncccc1S(=O)(=O)Nc1cc(-c2ccccc2)ccc1F [I-250] | 0.5 to 20 µM
10 | N#Cc1cc(S(=O)(=O)Nc2cc(-c3ccccc3)ccc2F)ccc1Cl [I-251] | 0.5 to 20 µM
11 | O=S(=O)(Nc1cc(-c2ccccc2)ccc1F)c1ccc(Cl)c(-c2nnn[nH]2)c1 [I-252] | 0.5 to 20 µM
12 | O=c1[nH]c2cc(F)c(S(=O)(=O)Nc3cc(-c4ccccc4)ccc3F)cc2o1 [I-253] | 0.5 to 20 µM
13 | CCS(=O)(=O)Nc1cc(OC)ccc1S(=O)(=O)Nc1cc(-c2ccccc2)ccc1F [I-254] | 0.5 to 20 µM
14 | O=C1COc2cc(S(=O)(=O)Nc3cc(-c4ccccc4)ccc3F)c(Cl)cc2N1 [I-255] | 0.5 to 20 µM
15 | O=C(O)c1cc(Cl)c(Cl)c(S(=O)(=O)Nc2cc(-c3ccccc3)ccc2F)c1 [I-256] | 0.5 to 20 µM
16 | O=C(O)c1ccc(-c2ccccc2)cc1NS(=O)(=O)Cc1ccccc1 [I-257] | 0.5 to 20 µM
17 | O=C(O)c1ccc(-c2ccccc2)cc1NS(=O)(=O)c1ccc2[nH]c(=O)[nH]c2c1 [I-258] | 0.5 to 20 µM
18 | O=C(O)c1ccc(-c2ccccc2)cc1NS(=O)(=O)CCc1ccccc1 [I-259] | 0.5 to 20 µM
19 | COc1ccc(-c2ccccc2)cc1NS(=O)(=O)c1cc(Cl)cc(Cl)c1NS(C)(=O)=O [I-263, 3,5-dichloro-2-methanesulfonamido-N-[4-methoxy-[1,1-biphenyl]-3-yl]benzene-1-sulfonamide] | 0.5 to 20 µM
20 | CC(C)(C)OC(=O)COc1ccc(-c2ccccc2)cc1NS(=O)(=O)c1cc(C(F)(F)F)cc(Cl)c1O [I-265, tert-butyl 2-([3-[3-chloro-2-hydroxy-5-(trifluoromethyl)benzenesulfonamido]-[1,1-biphenyl]-4-yl]oxy)acetate] | 0.5 to 20 µM
21 | O=C(O)c1ccc(-c2ccccc2)cc1NCc1cc(Cl)cc(Cl)c1 [I-267, 3-((3,5-dichlorobenzyl)amino)-[1,1′-biphenyl]-4-carboxylic Acid] | 0.5 to 20 µM
22 | O=C(c1cc(Cl)c(O)c(S(=O)(=O)Nc2ccccc2F)c1)N1CCC1 [I-268, 5-(azetidine-1-carbonyl)-3-chloro-N-(2-fluorophenyl)-2-hydroxybenzene-1-sulfonamide] | 0.5 to 20 µM
23 | O=C(O)COc1ccc(-c2ccccc2)cc1NS(=O)(=O)c1cc(C(=O)N2CCC2)cc(Cl)c1O [I-270, 2-([3-[5-(azetidine-1-carbonyl)-3-chloro-2-hydroxybenzenesulfonamido]-[1,1-biphenyl]-4-yl]oxy)acetic Acid] | 0.5 to 20 µM
24 | CN(C)C(=O)c1cc(Cl)c(O)c(S(=O)(=O)Nc2cc(-c3ccccc3)ccc2C(=O)O)c1 [I-271, 3-((3-chloro-5-(dimethylcarbamoyl)-2-hydroxyphenyl)sulfonamido)-[1,1′-biphenyl]-4-carboxylic Acid] | 0.5 to 20 µM

Row | Compound | IC50
25 | O=C(O)c1ccc(-c2ccccc2)cc1NS(=O)(=O)c1cccc(Cl)c1 [I-273, 3-((3-chlorophenyl)sulfonamido)-[1,1′-biphenyl]-4-carboxylic acid] | 0.5 to 20 µM
26 | O=C(O)c1ccc(-c2ccccc2)cc1NS(=O)(=O)CC1CCCC1 [I-274] | 0.5 to 20 µM
27 | COc1ccc(-c2ccccc2)cc1NS(=O)(=O)c1cc(C(=O)N2CCNCC2)cc(Cl)c1O [I-277, 3-chloro-2-hydroxy-N-[4-methoxy-[1,1-biphenyl]-3-yl]-5-(piperazine-1-carbonyl)benzene-1-sulfonamide] | 0.5 to 20 µM
28 | O=C(O)c1cc(-c2ccccc2)ccc1NS(=O)(=O)c1cc(Cl)cc(Cl)c1 [I-278, 4-((3,5-dichlorophenyl)sulfonamido)-[1,1′-biphenyl]-3-carboxylic acid] | 0.5 to 20 µM
29 | CC(=O)N1CCCN(c2ccc(-c3ccccc3)cc2NS(=O)(=O)c2cc(Cl)cc(Cl)c2O)CC1 [I-279, N-[4-(4-acetyl-1,4-diazepan-1-yl)-[1,1-biphenyl]-3-yl]-3,5-dichloro-2-hydroxybenzene-1-sulfonamide] | 0.5 to 20 µM
30 | O=C(Cc1cc(Cl)cc(Cl)c1)Nc1cc(-c2ccccc2)ccc1C(=O)O [I-280, 3-(2-(3,5-dichlorophenyl)acetamido)-[1,1′-biphenyl]-4-carboxylic Acid] | 0.5 to 20 µM
31 | O=C(O)c1cc(Cl)c(O)c(S(=O)(=O)Nc2ccccc2F)c1 [I-283, 3-chloro-5-[(2-fluorophenyl)sulfamoyl]-4-hydroxybenzoic acid] | 0.5 to 20 µM
32 | O=C(O)c1ccc(-c2ccccc2)cc1NS(=O)(=O)c1ccc(Cl)c(Cl)c1 [I-284, 3-((3,4-dichlorophenyl)sulfonamido)-[1,1′-biphenyl]-4-carboxylic acid] | 0.5 to 20 µM
33 | O=S(=O)(Nc1ccccc1Oc1ccccc1)c1cc(Cl)cc(Cl)c1O [I-285, 3,5-dichloro-2-hydroxy-N-(2-phenoxyphenyl)benzene-1-sulfonamide] | 0.5 to 20 µM
34 | O=C(O)c1ccc(-c2ccccc2)cc1NS(=O)(=O)c1cc(Cl)ccc1Cl [I-288, 3-((2,5-dichlorophenyl)sulfonamido)-[1,1′-biphenyl]-4-carboxylic acid] | 0.5 to 20 µM
35 | O=S(=O)(Nc1cc(-n2nccn2)c(F)cc1F)c1cc(Cl)cc(Cl)c1O [I-290, 3,5-dichloro-N-[2,4-difluoro-5-(2H-1,2,3-triazol-2-yl)phenyl]-2-hydroxybenzene-1-sulfonamide] | 0.5 to 20 µM
36 | O=C(O)CCCOc1ccc(-c2ccccc2)cc1NS(=O)(=O)c1cc(Cl)cc(Cl)c1 [I-291, 4-[[3-(3,5-dichlorobenzenesulfonamido)-[1,1-biphenyl]-4-yl]oxy]butanoic Acid] | 0.5 to 20 µM
37 | O=C(O)c1ccc(-c2ccccc2)cc1NS(=O)(=O)c1cccc(C(F)(F)F)c1 [I-292, 3-((3-(trifluoromethyl)phenyl)sulfonamido)-[1,1′-biphenyl]-4-carboxylic acid] | 0.5 to 20 µM
38 | O=C(O)c1ccc(-c2ccccc2)cc1NS(=O)(=O)c1cccnc1Cl [I-300] | 0.5 to 20 µM
39 | O=C(O)c1ccc(-c2ccccc2)cc1NS(=O)(=O)c1ccc2[nH]ncc2c1 [I-301, 3-(1H-indazole-5-sulfonamido)-[1,1′-biphenyl]-4-carboxylic Acid] | 0.5 to 20 µM
40 | O=C(O)c1cc(Br)cc(S(=O)(=O)Nc2cc(-c3ccccc3)ccc2C(=O)O)c1 [I-303, 3-((3-bromo-5-carboxyphenyl)sulfonamido)-[1,1′-biphenyl]-4-carboxylic Acid] | 0.5 to 20 µM
41 | O=C(O)c1ccc(-c2ccccc2)cc1NS(=O)(=O)CC1CCC1 [I-307, 3-((cyclobutylmethyl)sulfonamido)-[1,1′-biphenyl]-4-carboxylic Acid] | 0.5 to 20 µM
42 | O=C(O)COc1c(Cl)cc(Cl)cc1C(=O)Nc1cc(-c2ccccc2)ccc1C(=O)O [I-308, 3-(2-(carboxymethoxy)-3,5-dichlorobenzamido)-[1,1′-biphenyl]-4-carboxylic Acid] | 0.5 to 20 µM
43 | O=C(NCc1cc(-c2ccccc2)ccc1C(=O)O)c1cc(Cl)cc(Cl)c1 [I-309, 3-((3,5-dichlorobenzamido)methyl)-[1,1′-biphenyl]-4-carboxylic Acid] | 0.5 to 20 µM
44 | Cc1cccc(CS(=O)(=O)Nc2cc(-c3ccccc3)ccc2C(=O)O)c1 [I-310, 3-((m-tolylmethyl)sulfonamido)-[1,1′-biphenyl]-4-carboxylic acid] | 0.5 to 20 µM
45 | O=C(O)c1ccc(-c2ccccc2)cc1NS(=O)(=O)c1cccc(C(F)(F)F)n1 [I-312, 3-((6-(trifluoromethyl)pyridine)-2-sulfonamido)-[1,1′-biphenyl]-4-carboxylic Acid] | 0.5 to 20 µM
46 | COc1ccc(C)cc1S(=O)(=O)Nc1cc(-c2ccccc2)ccc1C(=O)O [I-313, 3-((2-methoxy-5-methylphenyl)sulfonamido)-[1,1′-biphenyl]-4-carboxylic Acid] | 0.5 to 20 µM
47 | CC(=O)c1cccc(S(=O)(=O)Nc2cc(-c3ccccc3)ccc2C(=O)O)c1 [I-314, 3-((3-acetylphenyl)sulfonamido)-[1,1′-biphenyl]-4-carboxylic Acid] | 0.5 to 20 µM
48 | COc1ccc(F)cc1S(=O)(=O)Nc1cc(-c2ccccc2)ccc1C(=O)O [I-315, 3-((5-fluoro-2-methoxyphenyl)sulfonamido)-[1,1′-biphenyl]-4-carboxylic Acid] | 0.5 to 20 µM

Same assay, conditions: read-out: ACL-ADP-Glo (IC50); 3 nM ACL, 15 μM ATP, 3 μM CoA, 300 μM Citrate

Row | Compound | IC50
49 | O=C(O)Cc1ccc(-c2ccccc2)cc1NS(=O)(=O)c1cc(Cl)cc(Cl)c1 [I-228, 2-(3-((3,5-dichlorophenyl)sulfonamido)-[1,1′-biphenyl]-4-yl)acetic Acid] | 0.5 to 20 µM
50 | O=C(c1cc(Cl)c(O)c(S(=O)(=O)Nc2cc(-c3ccccc3)ccn2)c1)N1CCC1 [I-237] | 0.5 to 20 µM

— patent US11555012B2 (Nimbus Artemis, Inc., priority 2018, dated 2023)
